The numbers were not newly measured in US20050250838A1, “Formulation for sustained delivery” (priority 2004, published 2005), which cites them from elsewhere.

Structures are written as SMILES. Where a name gives a salt, the structure may show the parent alone.

The conditions of data set [1]: at 6 weeks.

Turning to `Fc1ccc([C@@H]2CCNC[C@H]2COc2ccc3c(c2)OCO3)cc1` [amorphous paroxetine hydrochloride, paroxetine hydrochloride], the solubility entry (at room temperature (U.S. Pat. No. 6,660,298)) was “up to 75 mg/ml”.
As to `CNCCC(Oc1ccc(C(F)(F)F)cc1)c1ccccc1` (stereo not drawn) [fluoxetine], the response result in data set [1] is given as “about 50%”.
`Fc1ccc([C@@H]2CCNC[C@H]2COc2ccc3c(c2)OCO3)cc1` [paroxetine hydrochloride hemihydrate]: under “water”, the solubility in water was 6000 to 12000 µg/mL.
